The results in this text go back to ChEMBL document CHEMBL1141972, “4'C-ethynyl-thymidine acts as a chain terminator during DNA-synthesis catalyzed by HIV-1 reverse transcriptase” (Bioorg Med Chem Lett, 2005).

This test has as its target Human immunodeficiency virus type 1 reverse transcriptase (Human immunodeficiency virus 1, UniProt Q72547). Put plainly: Inhibitory concentration against human immunodeficiency virus type 1 reverse transcriptase.

What is called IC50 is the concentration that inhibits the measured activity by half.

In turn, `Cc1cn([C@H]2C[C@H](N=[N+]=[N-])[C@@H](CO[P@](=O)(O)O[P@](=O)(O)OP(=O)(O)O)O2)c(=O)[nH]c1=O` [ZIDOVUDINE TRIPHOSPHATE] gave an IC50 of 2100 nM. In the case of `C#C[C@]1(COP(=O)(O)OP(=O)(O)OP(=O)(O)O)O[C@@H](n2cc(C)c(=O)[nH]c2=O)C[C@@H]1O`, the IC50 amounted to 3280 nM.
